Test results taken from patent publication US12162893B2 (Erasca, Inc., priority 2020, dated 2024).

What follows are molecules tested against T1, mutant G12C K-RAS (Homo sapiens, UniProt P01116, G12C) (assay: covalent adduct formation (CAF) with mutant G12C K-RAS). Details: Table 3, Pyridone Core-Morpholine Unsubstituted; after 60 minutes at 10 micromolar.
T1 construct: made in house; host or cells: E. coli BL21
Assay type: binding
Parameters: CAF: unit not given here
Procedure: Embodiments disclosed herein are further illustrated by the following examples in Tables 1-4 and the Examples hereinbelow. The Tables indicate the compound number, structure, the observed mass spectral molecular weight peak, and covalent adduct formation (CAF) with a mutant G12C K-RAS after 60 minutes at a concentration of 10 micromolar.
In the case of `C=CC(=O)N1CCN(c2c(C#N)c(=O)n3c4c(c(-c5c(O)cccc5F)c(Cl)cc24)OCC3)[C@@H](C)C1` [Example 39, (S)-7-((S)-4-acryloyl-2-methylpiperazin-1-yl)-9-chloro-10-(2-fluoro-6-hydroxyphenyl)-5-oxo-3,5-dihydro-2H-[1,4]oxazino[2,3,4-ij]quinoline-6-carbonitrile], the CAF is reported as 0.

Same assay, conditions: Table 5; 10 uM, 1 h
For `C=CC(=O)N1CCN(c2nc(=O)n3c4c(c(-c5ccc(F)cc5F)c(C(F)(F)F)cc24)SCC3)C2CS(=O)(=O)CC21` (centres unmarked) [Example 100, 7-(4-acryloyl-6,6-dioxidohexahydrothieno[3,4-b]pyrazin-1(2H)-yl)-10-(2,4-difluorophenyl)-9-(trifluoromethyl)-2,3-dihydro-5H-[1,4]thiazino[2,3,4-ij]quinazolin-5-one], the “% CAF @ 10 uM, 1 h” value was 94%.

Same assay, conditions: Table 6; 10 μM, 1 h
`C=CC(=O)N1C[C@H](C)N(c2nc(=O)n3c4c(c(-c5c(C)ccc6[nH]ncc56)c(Cl)cc24)OC[C@@H]3CCCN2C3CCC2COC3)C[C@H]1C` [Example 282, (3S,10R)-3-(3-(3-oxa-8-azabicyclo[3.2.1]octan-8-yl)propyl)-7-((2S,5R)-4-acryloyl-2,5-dimethylpiperazin-1-yl)-9-chloro-10-(5-methyl-1H-indazol-4-yl)-2,3-dihydro-5H-[1,4]oxazino[2,3,4-ij]quinazolin-5-one] was tested, and the “% CAF @ 10 μM,1 h” value was 86%. With `C=CC(=O)N1C[C@H](C)N(c2nc(=O)n3c4c(c(-c5c(C)ccc6[nH]nnc56)ccc24)OCC3)C[C@H]1C` [Example 219, 7-((2S,5R)-4-acryloyl-2,5-dimethylpiperazin-1-yl)-10-(5-methyl-1H-benzo[d][1,2,3]triazol-4-yl)-2,3-dihydro-5H-[1,4]oxazino[2,3,4-ij]quinazolin-5-one] the “% CAF @ 10 μM,1 h” value was 0%. With `C=CC(=O)N1C[C@H](C)N(c2nc(=O)n3c4c(c(-c5ccc(F)cc5F)c(Cl)cc24)OC[C@H]3CCCN2CC(F)(F)C2)C[C@H]1C` [Example 298, (3R)-7-((2S,5R)-4-acryloyl-2,5-dimethylpiperazin-1-yl)-9-chloro-3-(3-(3,3-difluoroazetidin-1-yl)propyl)-10-(2,4-difluorophenyl)-2,3-dihydro-5H-[1,4]oxazino[2,3,4-ij]quinazolin-5-one] the “% CAF @ 10 μM,1 h” value was 68%. In the case of `C=CC(=O)N1C[C@H](C)N(c2nc(=O)n3c4c(c(-c5c(O)cccc5F)c(Cl)cc24)OC[C@H]3Cn2cccn2)C[C@H]1C` (atropisomer, axis not shown) [Example 245, (3R,10R)-3-((1H-pyrazol-1-yl)methyl)-7-((2S,5R)-4-acryloyl-2,5-dimethylpiperazin-1-yl)-9-chloro-10-(2-fluoro-6-hydroxyphenyl)-2H-[1,4]oxazino[2,3,4-ij]quinazolin-5(3H)-one], the “% CAF @ 10 μM,1 h” value is reported as 0%. With `C=CC(=O)N1C[C@H](C)N(c2nc(=O)n3c4c(c(-c5ccc(F)cc5F)c(Cl)cc24)O[C@H](CCCN2C4CCC2COC4)C3)C[C@H]1C` [Example 261, (2R)-2-(3-(3-oxa-8-azabicyclo[3.2.1]octan-8-yl)propyl)-7-((2S,5R)-4-acryloyl-2,5-dimethylpiperazin-1-yl)-9-chloro-10-(2,4-difluorophenyl)-2,3-dihydro-5H-[1,4]oxazino[2,3,4-ij]quinazolin-5-one] the “% CAF @ 10 μM,1 h” value was 21.1%. In the case of `C=CC(=O)N1C[C@H](C)N(c2nc(=O)n3c4c(c(-c5cc(Cl)ccc5F)c(Cl)cc24)OC[C@H]3CN2CCOCC2)C[C@H]1C` [Example 212, (3R)-7-((2S,5R)-4-acryloyl-2,5-dimethylpiperazin-1-yl)-9-chloro-10-(5-chloro-2-fluorophenyl)-3-(morpholinomethyl)-2H-[1,4]oxazino[2,3,4-ij]quinazolin-5(3H)-one], the “% CAF @ 10 μM,1 h” value is reported as 59.8%. In the case of `C=CC(=O)N1C[C@H](C)N(c2nc(=O)n3c4c(c(-c5ccc(F)cc5F)c(Cl)cc24)OC[C@H]3CCCN2CC3CCC(C2)O3)C[C@H]1C` [Example 312, (3R)-3-(3-(8-oxa-3-azabicyclo[3.2.1]octan-3-yl)propyl)-7-((2S,5R)-4-acryloyl-2,5-dimethylpiperazin-1-yl)-9-chloro-10-(2,4-difluorophenyl)-2,3-dihydro-5H-[1,4]oxazino[2,3,4-ij]quinazolin-5-one], the “% CAF @ 10 μM,1 h” value is reported as 68.2%. For `C=CC(=O)N1C[C@H](C)N(c2nc(=O)n3c4c(c(-c5ccc(F)cc5F)c(Cl)cc24)OC[C@H]3CCCN2CCC(F)(F)C2)C[C@H]1C` [Example 271, (3R)-7-((2S,5R)-4-acryloyl-2,5-dimethylpiperazin-1-yl)-9-chloro-10-(2,4-difluorophenyl)-3-(3-(3,3-difluoropyrrolidin-1-yl)propyl)-2,3-dihydro-5H-[1,4]oxazino[2,3,4-ij]quinazolin-5-one], the “% CAF @ 10 μM,1 h” value was 93.6%. `C=CC(=O)N1C[C@H](C)N(c2nc(=O)n3c4c(c(-c5ccc(F)cc5F)c(Cl)cc24)OC[C@@H]3CN2CCOCC2)C[C@H]1C` [Example 203, (3S)-7-((2S,5R)-4-acryloyl-2,5-dimethylpiperazin-1-yl)-9-chloro-10-(2,4-difluorophenyl)-3-(morpholinomethyl)-2H-[1,4]oxazino[2,3,4-ij]quinazolin-5(3H)-one] was tested, and the “% CAF @ 10 μM,1 h” value was 84.3%.
